Measurements from patent US20120202801A1, “METHODS FOR TREATING BREAST CANCER” (priority 2009, published 2012).

Tested on: hypoxia-inducible endogenous VEGF expression
Assay: Hypoxia-inducible endogenous VEGF expression ELISA in HeLa cells, dose-response (EC50, Table 3)
Conditions: Homo sapiens, read-out: ELISA EC50 μM

Compared with `O=C(Oc1ccc(Cl)cc1)N1CCc2c([nH]c3ccc(Cl)cc23)C1c1ccc(OCCN2CCOCC2)cc1` (stereo not shown) [Compound 331], `O=C(Oc1ccc(Cl)cc1)N1CCc2c([nH]c3ccc(Cl)cc23)C1c1ccc(OCCCN2CCOCC2)cc1` (stereo not shown) [Compound 894] is lower in EC50: > 1 µM for the first, < 0.008 µM for the second. The second is the more potent here.

`CC(=O)N1CCN(CC(O)COc2ccc(C3c4[nH]c5ccc(Cl)cc5c4CCN3C(=O)Oc3ccc(Cl)cc3)cc2)CC1` (stereo not shown) [Compound 415] and `CC(=O)N1CCN(CC(O)COc2ccc(C3c4[nH]c5ccc(Cl)cc5c4CCN3C(=O)Oc3ccc(F)cc3)cc2)CC1` (stereo not shown) [Compound 637] cannot be ordered by EC50: < 0.008 µM for the first, < 0.008 µM for the second.

`O=C(Oc1ccc(Cl)cc1)N1CCc2c([nH]c3ccc(Cl)cc23)C1c1ccc(OCCCN2CCCC2)cc1` (stereo not shown) [Compound 429] and `O=C(Oc1ccc(Cl)cc1)N1CCc2c([nH]c3ccc(Cl)cc23)C1c1ccc(OCCCN2CCCCC2)cc1` (stereo not shown) [Compound 433] cannot be ordered by EC50: < 0.008 µM for the first, < 0.008 µM for the second.

`O=C(CN1CCOCC1)Nc1ccc(C2c3[nH]c4ccc(Cl)cc4c3CCN2C(=O)Oc2ccc(Cl)cc2)cc1` (stereo not shown) [Compound 454] and `O=C(Oc1ccc(Cl)cc1)N1CCc2c([nH]c3ccc(Cl)cc23)C1c1ccc(OCCCCN2CCOCC2)cc1` (stereo not shown) [Compound 702] fall in the same range of EC50: 0.008 to 0.04 µM for the first, 0.008 to 0.04 µM for the second.

`O=C(Oc1ccc(Cl)cc1)N1CCc2c([nH]c3ccc(Cl)cc23)C1c1ccc(OCC(O)CN2CCCC2)cc1` (stereo not shown) [Compound 462] and `O=C(Oc1ccc(Cl)cc1)N1CCc2c([nH]c3ccc(Cl)cc23)C1c1ccc(OCCCCN2CCCC2)cc1` (stereo not shown) [Compound 698] fall in the same range of EC50: 0.008 to 0.04 µM for the first, 0.008 to 0.04 µM for the second.

First: CN(C)CCCOc1ccc(C2c3[nH]c4ccc(Cl)cc4c3CCN2C(=O)Oc2ccc(Br)cc2)cc1 (stereo not shown) [Compound 468]
Second: CN(C)CCCOc1ccc(C2c3[nH]c4ccc(Cl)cc4c3CCN2C(=O)Oc2ccc(Cl)cc2)cc1 (stereo not shown) [Compound 479]
The EC50 of the first is lower: 0.008 to 0.04 µM for the first, 0.04 to 0.2 µM for the second. The first is the more potent here.

`CN(C)CC(=O)Nc1ccc(C2c3[nH]c4ccc(Cl)cc4c3CCN2C(=O)Oc2ccc(Cl)cc2)cc1` (stereo not shown) [Compound 491] and `CNCC(O)COc1ccc(C2c3[nH]c4ccc(Cl)cc4c3CCN2C(=O)Oc2ccc(Cl)cc2)cc1` (stereo not shown) [Compound 850] fall in the same range of EC50: 0.04 to 0.2 µM for the first, 0.04 to 0.2 µM for the second.

`CN(C)CCCOc1ccc(C2c3[nH]c4ccc(Cl)cc4c3CCN2C(=O)Oc2ccccc2)cc1` (stereo not shown) [Compound 493] and `Cc1ccc(OC(=O)N2CCc3c([nH]c4ccc(Cl)cc34)C2c2ccc(OCCCN(C)C)cc2)cc1` (stereo not shown) [Compound 502] fall in the same range of EC50: 0.04 to 0.2 µM for the first, 0.04 to 0.2 µM for the second.

First: COc1ccc(OC(=O)N2CCc3c([nH]c4ccc(Cl)cc34)C2c2ccc(OCCCN(C)C)cc2)cc1 (stereo not shown) [Compound 501]
Second: CC(C)NCCCCOc1ccc(C2c3[nH]c4ccc(Cl)cc4c3CCN2C(=O)Oc2ccc(Cl)cc2)cc1 (stereo not shown) [Compound 700]
The EC50 of the first is higher: 0.04 to 0.2 µM for the first, 0.008 to 0.04 µM for the second.

First: O=C1NC2CSC(CCCCC(=O)OCCOc3ccc(C4c5[nH]c6ccc(Cl)cc6c5CCN4C(=O)Oc4ccc(Cl)cc4)cc3)C2N1 (stereo not shown) [Compound 544]
Second: O=C(Oc1ccc(Cl)cc1)N1CCc2c([nH]c3ccc(Cl)cc23)C1c1ccc(OCCCCNCCO)cc1 (stereo not shown) [Compound 699]
The EC50 of the first is lower: < 0.008 µM for the first, 0.008 to 0.04 µM for the second. The first is the more potent here.

`O=C(Oc1ccc(Cl)cc1)Oc1ccc(C2c3[nH]c4ccc(Cl)cc4c3CCN2C(=O)Oc2ccc(Cl)cc2)cc1` (stereo not shown) [Compound 578] and `NCC(O)COc1ccc(C2c3[nH]c4ccc(Cl)cc4c3CCN2C(=O)Oc2ccc(Cl)cc2)cc1` (stereo not shown) [Compound 846] fall in the same range of EC50: 0.04 to 0.2 µM for the first, 0.04 to 0.2 µM for the second.

`O=C(Oc1ccc(F)cc1)N1CCc2c([nH]c3ccc(Cl)cc23)C1c1ccc(OCC(O)CN2CCOCC2)cc1` (stereo not shown) [Compound 638] and `O=C(Oc1ccc(F)cc1)N1CCc2c([nH]c3ccc(Cl)cc23)C1c1ccc(OCCCCN2CCOCC2)cc1` (stereo not shown) [Compound 738] cannot be ordered by EC50: < 0.008 µM for the first, < 0.008 µM for the second.

First: COCCCNCCCCOc1ccc(C2c3[nH]c4ccc(Cl)cc4c3CCN2C(=O)Oc2ccc(Cl)cc2)cc1 (stereo not shown) [Compound 701]
Second: COCCCNCCCCCCOc1ccc(C2c3[nH]c4ccc(Cl)cc4c3CCN2C(=O)Oc2ccc(Cl)cc2)cc1 (stereo not shown) [Compound 785]
The EC50 of the first is higher: 0.008 to 0.04 µM for the first, < 0.008 µM for the second.

First: O=C(Oc1ccc(Cl)cc1)N1CCc2c([nH]c3ccc(Cl)cc23)C1c1ccc(OCCCCN2CCCCC2)cc1 (stereo not shown) [Compound 703]
Second: O=C(Oc1ccc(Cl)cc1)N1CCc2c([nH]c3ccc(Cl)cc23)C1c1ccc(OCCCCCCN2CCCCC2)cc1 (stereo not shown) [Compound 787]
The EC50 of the first is higher: 0.008 to 0.04 µM for the first, < 0.008 µM for the second.

Compared with `CN1CCN(CCCCOc2ccc(C3c4[nH]c5ccc(Cl)cc5c4CCN3C(=O)Oc3ccc(Cl)cc3)cc2)CC1` (stereo not shown) [Compound 704], `CN1CCN(CCCCCCOc2ccc(C3c4[nH]c5ccc(Cl)cc5c4CCN3C(=O)Oc3ccc(Cl)cc3)cc2)CC1` (stereo not shown) [Compound 788] is lower in EC50: 0.04 to 0.2 µM for the first, 0.008 to 0.04 µM for the second. The second is the more potent here.

`O=C(Oc1ccc(F)cc1)N1CCc2c([nH]c3ccc(Cl)cc23)C1c1ccc(OCCCCNCCO)cc1` (stereo not shown) [Compound 735] and `O=C(Oc1ccc(F)cc1)N1CCc2c([nH]c3ccc(Cl)cc23)C1c1ccc(OCCCCCCNCCO)cc1` (stereo not shown) [Compound 772] cannot be ordered by EC50: < 0.008 µM for the first, < 0.008 µM for the second.

`O=C(Oc1ccc(F)cc1)N1CCc2c([nH]c3ccc(Cl)cc23)C1c1ccc(OCCCCN2CCCC2)cc1` (stereo not shown) [Compound 736] and `O=C(Oc1ccc(F)cc1)N1CCc2c([nH]c3ccc(Cl)cc23)C1c1ccc(OCCCCN2CCCCC2)cc1` (stereo not shown) [Compound 739] cannot be ordered by EC50: < 0.008 µM for the first, < 0.008 µM for the second.

Compared with `COCCCNCCCCOc1ccc(C2c3[nH]c4ccc(Cl)cc4c3CCN2C(=O)Oc2ccc(F)cc2)cc1` (stereo not shown) [Compound 737], `COCCCNCCCCCCOc1ccc(C2c3[nH]c4ccc(Cl)cc4c3CCN2C(=O)Oc2ccc(F)cc2)cc1` (stereo not shown) [Compound 775] is lower in EC50: 0.008 to 0.04 µM for the first, < 0.008 µM for the second. The second is the more potent here.

First: CN1CCN(CCCCOc2ccc(C3c4[nH]c5ccc(Cl)cc5c4CCN3C(=O)Oc3ccc(F)cc3)cc2)CC1 (stereo not shown) [Compound 740]
Second: CN1CCN(CCCCCCOc2ccc(C3c4[nH]c5ccc(Cl)cc5c4CCN3C(=O)Oc3ccc(F)cc3)cc2)CC1 (stereo not shown) [Compound 778]
The EC50 of the first is higher: 0.04 to 0.2 µM for the first, < 0.008 µM for the second.

`O=C(Oc1ccc(F)cc1)N1CCc2c([nH]c3ccc(Cl)cc23)C1c1ccc(OCCCCNCCCn2ccnc2)cc1` (stereo not shown) [Compound 741] and `O=C(Oc1ccc(F)cc1)N1CCc2c([nH]c3ccc(Cl)cc23)C1c1ccc(OCCCCCCNCCCn2ccnc2)cc1` (stereo not shown) [Compound 779] fall in the same range of EC50: 0.04 to 0.2 µM for the first, 0.04 to 0.2 µM for the second.

`O=C(Oc1ccc(F)cc1)N1CCc2c([nH]c3ccc(Cl)cc23)C1c1ccc(OCCCCCCN2CCCC2)cc1` (stereo not shown) [Compound 773] and `O=C(Oc1ccc(F)cc1)N1CCc2c([nH]c3ccc(Cl)cc23)C1c1ccc(OCCCCCCN2CCCCC2)cc1` (stereo not shown) [Compound 777] cannot be ordered by EC50: < 0.008 µM for the first, < 0.008 µM for the second.

First: CC(C)NCCCCCCOc1ccc(C2c3[nH]c4ccc(Cl)cc4c3CCN2C(=O)Oc2ccc(F)cc2)cc1 (stereo not shown) [Compound 774]
Second: CC(C)NCCCCCCOc1ccc(C2c3[nH]c4ccc(Cl)cc4c3CCN2C(=O)Oc2ccc(Cl)cc2)cc1 (stereo not shown) [Compound 784]
The EC50 of the first is higher: 0.008 to 0.04 µM for the first, < 0.008 µM for the second. The second is the more potent here.

`O=C(Oc1ccc(F)cc1)N1CCc2c([nH]c3ccc(Cl)cc23)C1c1ccc(OCCCCCCN2CCOCC2)cc1` (stereo not shown) [Compound 776] and `O=C(Oc1ccc(Cl)cc1)N1CCc2c([nH]c3ccc(Cl)cc23)C1c1ccc(OCCCCCCN2CCOCC2)cc1` (stereo not shown) [Compound 786] cannot be ordered by EC50: < 0.008 µM for the first, < 0.008 µM for the second.

First: O=C(Oc1ccc(Cl)cc1)N1CCc2c([nH]c3ccc(Cl)cc23)C1c1ccc(OCCCCCCNCCO)cc1 (stereo not shown) [Compound 782]
Second: O=C(Oc1ccc(Cl)cc1)N1CCc2c([nH]c3ccc(Cl)cc23)C1c1ccc(OCCCCCCNCCCn2ccnc2)cc1 (stereo not shown) [Compound 789]
The EC50 of the first is lower: < 0.008 µM for the first, 0.04 to 0.2 µM for the second. The first is the more potent here.

For `O=C(Oc1ccc(Cl)cc1)N1CCc2c([nH]c3ccc(Cl)cc23)C1c1ccc(OCCCCCCN2CCCC2)cc1` (stereo not shown) [Compound 783], the EC50 was < 0.008 µM.
